Data reported in patent US20250032590A1, “PARATHYROID HORMONE COMPOUNDS IN THE TREATMENT OF HYPOPARATHYROIDISM” (AMOLYT PHARMA, priority 2023, published 2025).
Like-named read-outs stand apart in the source and are kept apart here.

How the values were obtained:
[1] = system: patients with HP; settings: cited from earlier work; for urinary calcium excretion: clinical studies; for control of calcium levels: patients with HP
[2] = system: PTX mice; experiment: Serum calcium after single dosing in HP PTX mouse model (Example 1); format: in vivo; settings: PTX mice, single dosing; AZP-3601 20, 40 or 80 μg/kg; PTH (1-34) 200 μg/kg
Excerpt: In FIG. 1, the black line indicates the impact of PTX in mice, resulting in serum calcium levels well below normal levels.

[3] = system: hypoparathyroid mice; settings: single sc, AZP-3601 10 to 20 nmol/kg, PTH(1-34) at a higher dose; cited from earlier work
[4] = system: normal cynomolgus monkeys; experiment: Blood calcium after single injection in normal cynomolgus monkeys (Example 5); format: in vivo, cynomolgus monkey; settings: single dose 10 nmole/kg (AZP-3601 42.7 μg/kg, PTH (1-84) 95 μg/kg, PTH (1-34) 42 μg/kg), AZP-3601 also 10.7 μg/kg (2.5 nmole/kg)
Experimental: To further examine how the potent and sustained biological activity induced by AZP-3601 could translate into potential clinical benefit for […] patients, its activity was examined in normal cynomolgus monkeys, a species much closer to humans and the most relevant for first in human dose-selection. Single injections of AZP-3601 were administered to normal cynomolgus monkeys. […] The dissociation between pharmacokinetic profile and pharmacodynamic effect is due to the short circulating half-life of AZP-3601 as opposed to the prolonged signaling caused by AZP-3601's potent interaction with the R^0 conformation of the PTH1 receptor.
In a second study as illustrated in panel B of FIG. 5, monkeys were injected with a single dose of either natural PTH (1-84) at 95 μg/kg, natural PTH (1-34) at 42 μg/kg or AZP-3601 at 42.7 μg/kg, which were equal doses of 10 nmole/kg, adjusted for the molecular weight of the individual compounds. In addition, a lower dose of 10.7 μg AZP-3601/kg (2.5 nmole/kg) was also tested.

[5] = system: TPTX rats; experiment: Distal femur BMD by qCT in TPTX rats after 14-day treatment at doses that normalize serum calcium (Example 6); format: in vivo, rat
Experimental: To directly compare the effect of daily subcutaneous injection of AZP-3601 to daily subcutaneous injection and continuous infusion of PTH(1-34), dose levels for each regimen that normalized serum calcium levels in TPTX rats were utilized. These doses corresponded to 50 nmoles/kg/day (205 μg/kg/day) for PTH(1-34) injected daily, 3 nmoles/kg/day (12.3 μg/kg/day) for PTH(1-34) continuously infused, and 1 nmole/kg/day (4.2 μg/kg/day) for AZP-3601 injected daily. After 14 days of treatment, femurs were collected and examined for bone mineral density (BMD) by quantitative computed tomography.

[6] = system: TPTX rats; settings: rat, in vivo; cited from earlier work
[7] = system: patients with HP; settings: cited from earlier work
[8] = system: TPTX rats; experiment: Serum calcium and phosphate, 28-day daily sc dosing in HP TPTX rat model (Example 2); format: in vivo; settings: once daily sc for 28 days
Experimental: Thyroid-parathyroidectomized, or TPTX, rats were treated with daily subcutaneous injection of AZP-3601 at doses ranging from 3.8 μg/kg/day to 30.7 μg/kg/day. Treatment was continued for 28 days. […] The increase in calcium accumulated over time (over the first 15 to 21 days), but became more constant thereafter, indicating the development of a steady-state effect (FIG. 2). Due to the cumulative effect, lower doses of AZP-3601 were required to eventually increase blood calcium levels into the normal range as compared to the dose required with a single injection.

[9] = system: TPTX rats; experiment: BMD (DXA) and bone structure (micro-CT) in TPTX rats after repeated daily dosing (Example 7); format: in vivo, rat; settings: once daily sc, AZP-3601 3.8 to 30.7 μg/kg/day, versus vehicle
Experimental: To examine the effect of repeated dosing with AZP-3601, TPTX rats were treated with daily subcutaneous injections of either vehicle or AZP-3601 with doses ranging from 3.8 to 30.7 μg/kg/day (0.9-7.2 nmole/kg/day). As additional controls, a separate group of TPTX rats received daily injections of natural PTH (1-84), and a group of normal (with intact thyroid and parathyroid glands, or sham) rats were injected with vehicle. […] Both whole femurs and lumbar spine were analyzed using a technique called dual-energy x-ray absorptionametry, or DXA, which measures BMD.

## Natpara™: recombinant natural human PTH ((rh)PTH(1-84)), approved adjunct to calcium and vitamin D in HP
[1]
  urinary calcium excretion: failed to demonstrate reduction of urinary calcium excretion
  control of calcium levels: does not control calcium levels for the entire day
[1]; listed as (rh)PTH(1-84)
  urinary calcium excretion: elevated urinary calcium excretion in many subjects
  control of calcium levels: lack of 24-hour control of serum calcium
[1]; human, in vivo
  adverse effects: adverse effects such as hyper/hypocalcemia and vasoactive events
  half-life: short half-life

## PTH(1-34) (SVSEIQLMHNLGKHLNSMERVEWLRKKLQDVHNF) [natural PTH (1-34)]
[2]
  effect on serum calcium: transient elevation in serum calcium
[3]
  duration of decreased serum inorganic phosphorus: < 4 h
  duration of increased serum calcium: < 8 h
[4]
  effect on blood calcium, second study: only modestly increased blood calcium
[5]; 14 days, 3 nmoles/kg/day continuously infused
  femur BMD by quantitative computed tomography, continuous infusion: significant decrease in BMD
[5]; 14 days, PTH(1-34) 50 nmoles/kg/day, AZP-3601 1 nmole/kg/day
  femur BMD by quantitative computed tomography, daily injection: significant increase in BMD
[5]; continuously infused
  dose that normalized serum calcium levels, continuous infusion: 3 nmol/kg/day
[5]; injected daily
  dose that normalized serum calcium levels, daily subcutaneous injection: 50 nmol/kg/day

## TransCon™PTH: sustained-release, injectable prodrug formulation of native PTH (1-34), Ascendis Pharma A/S
[6]
  pharmacokinetic profile: continuous, non-pulsatile, infusion-like pharmacokinetic profile
[7]; Phase 3 trial, 6 months of treatment
  hypercalciuria after treatment: a number of patients are still hypercalciuric
[7]; human, in vivo
  mean T-scores: decrease in mean T-scores
  serum calcium levels: provides stable serum calcium levels
[7]; patients with HP
  mean 24-hour urine calcium levels: decrease mean 24-hour urine calcium levels

B1: PTH (1-84) (protein, UniProt P01270 32-115, looked up)
Parathyroid hormone: SVSEIQLMHNLGKHLNSMERVEWLRKKLQDVHNFVALGAPLAPRDAGSQRPRKKEDNVLVESHEKSLGEADKADVNVLTKAKSQ
modifications: Parathyroid hormone
notes: natural PTH (1-84), comparator in rats and monkeys
[8]
  effect on blood phosphate levels: only marginal reductions in blood phosphate levels
[8]; AZP-3601 3.8 to 30.7 μg/kg/day
  effect on serum/blood calcium levels: no persistent increase in blood calcium levels
[9]
  BMD of whole femur and lumbar spine by DXA: statistically significant increase in BMD
[4]
  effect on blood calcium, second study: only modestly increased blood calcium
